Columns and labels:
MMP-2 = target: T1, MMP-2 (Homo sapiens, UniProt P08253); assay: K(obs) of individual phage substrates (set of 1369); assay type: biochemical; details: MMP2
T1 sequence (P08253 110-660): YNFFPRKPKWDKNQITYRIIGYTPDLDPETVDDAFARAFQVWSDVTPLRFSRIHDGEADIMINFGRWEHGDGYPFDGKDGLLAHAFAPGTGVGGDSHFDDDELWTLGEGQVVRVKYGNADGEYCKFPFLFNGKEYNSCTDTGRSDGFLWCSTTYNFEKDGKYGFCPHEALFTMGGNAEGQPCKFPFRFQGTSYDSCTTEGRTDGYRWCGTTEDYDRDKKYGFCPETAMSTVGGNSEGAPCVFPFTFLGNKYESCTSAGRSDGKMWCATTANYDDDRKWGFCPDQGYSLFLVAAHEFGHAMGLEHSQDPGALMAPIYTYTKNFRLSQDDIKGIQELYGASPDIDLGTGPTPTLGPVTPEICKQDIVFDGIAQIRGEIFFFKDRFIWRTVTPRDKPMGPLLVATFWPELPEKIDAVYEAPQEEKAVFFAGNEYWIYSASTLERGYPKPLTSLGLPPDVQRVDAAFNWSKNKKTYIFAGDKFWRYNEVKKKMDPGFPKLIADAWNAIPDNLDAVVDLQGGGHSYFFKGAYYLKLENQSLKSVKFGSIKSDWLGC

MMP-9 = MMP-9 (Homo sapiens, UniProt P14780); assay: as above; assay type: biochemical; details: MMP9, individual phage substrates, set of 1369 peptides
[1] = individual phage substrates, set of 1369 peptides, cleavage position marked by '-' in the sequence
[2] = '-' marks the cleavage position (P1-P1')
[3] = individual phage substrate from the set of 1369 peptides, cleavage position marked by the dash in the sequence
[4] = dash in sequence marks cleavage position

MMP-9, sequence (P14780 94-707): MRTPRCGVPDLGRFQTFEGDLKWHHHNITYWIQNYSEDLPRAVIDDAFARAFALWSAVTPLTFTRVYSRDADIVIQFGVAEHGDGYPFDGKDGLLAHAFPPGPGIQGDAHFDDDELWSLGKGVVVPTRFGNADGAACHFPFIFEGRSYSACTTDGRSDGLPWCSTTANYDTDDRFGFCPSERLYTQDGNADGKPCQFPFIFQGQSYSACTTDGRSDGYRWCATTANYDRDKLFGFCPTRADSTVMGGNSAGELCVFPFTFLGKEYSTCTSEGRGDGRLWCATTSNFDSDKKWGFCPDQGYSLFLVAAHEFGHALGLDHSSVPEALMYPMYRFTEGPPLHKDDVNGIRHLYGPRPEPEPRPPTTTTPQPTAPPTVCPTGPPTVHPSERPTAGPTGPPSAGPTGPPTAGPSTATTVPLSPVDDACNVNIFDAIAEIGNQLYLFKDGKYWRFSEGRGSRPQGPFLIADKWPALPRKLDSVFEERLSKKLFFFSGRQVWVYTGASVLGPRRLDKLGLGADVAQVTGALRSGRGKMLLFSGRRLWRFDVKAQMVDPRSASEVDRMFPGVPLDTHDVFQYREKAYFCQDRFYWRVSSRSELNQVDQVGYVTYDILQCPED

Row | Substance | Kobs (MMP-2; [1]) [M⁻¹ s⁻¹] | Kobs (MMP-9; [2]) [M⁻¹ s⁻¹] | Kobs (MMP-2; [3]) [M⁻¹ s⁻¹] | Kobs (MMP-9; [4]) [M⁻¹ s⁻¹]
1 | VPPMP-LTASG | 12792.1 | 12792.1 |  | 
2 | SLPAH-ITASG |  |  | 12792.1 | 5461.43
3 | SGVGM-LYNTA |  |  | 1373.05 | 0
4 | SGYMH-IKVTA | 0 | 0 |  | 
5 | ERPGW-LTASG | 7386.83 | 3438.54 |  | 
6 | GCLMA-LTTAS | 6131.32 | 2837.92 |  | 
7 | GKASN-LYTAS | 3165.09 | 1030.73 |  | 
8 | YATWS-MTASG | 0 | 27.918 |  | 
9 | SRPRM-LTASG |  |  | 7815.03 | 8321.48
10 | VKAQH-LTASG |  |  | 7815.03 | 2476.66
11 | EHNLP-LTASG | 799.117 | 0 |  | 
12 | RDLWK-LTASG | 0 | 56.119 |  | 
13 | EPIYN-LTASG | 619.843 | 2761.81 |  | 
14 | GTVRH-LSTAS | 6396.07 | 1925.41 |  | 
15 | GHAHH-LYTAS |  |  | 171.876 | 201.585
16 | GGSGF-LVRSL | 9740.44 | 10866.7 |  | 
17 | SGPAG-MHSTA | 12792.1 | 7015.91 |  | 
18 | SGVMK-LQKTA |  |  | 0 | 0
19 | GHPWL-QRTAS | 0 | 56.119 |  | 
20 | SGAMN-LTLTA | 0 | 0 |  | 
21 | SGPHS-MKLTA | 0 | 323.705 |  | 

Row | Substance | Kobs (MMP-2; [1]) [M⁻¹ s⁻¹] | Kobs (MMP-9; [2]) [M⁻¹ s⁻¹] | Kobs (MMP-2; [3]) [M⁻¹ s⁻¹] | Kobs (MMP-9; [4]) [M⁻¹ s⁻¹]
22 | GVSAR-LVTAS |  |  | 142.481 | 0
23 | GQPAH-LSTAS |  |  | 10866.7 | 2761.81
24 | SGAYS-LRVTA | 2157.02 | 5090.5 |  | 
25 | GRALA-MQTAS | 3637.04 | 2218.08 |  | 
26 | SGINM-LTLTA | 0 | 0 |  | 
27 | GTLAQ-ISTAS |  |  | 0 | 517.582
28 | GSPLD-LKTAS |  |  | 12792.1 | 8941.32
29 | TVLRS-LTASG | 12792.1 | 3536.02 |  | 
30 | GNAMR-MVTAS | 0 | 56.119 |  | 
31 | EAVGN-LTASG |  |  | 12792.1 | 585.336
32 | GGSGR-LVMTY |  |  | 142.481 | 261.974
33 | VIVAA-LTASG | 12792.1 | 10866.7 |  | 
34 | HWPRF-LTASG |  |  | 10866.7 | 10866.7
35 | TAPIN-LTASG | 12792.1 | 12792.1 |  | 
36 | SGPSS-LLGTA | 12792.1 | 12792.1 |  | 
37 | GWGDR-LTTAS |  |  | 1154.21 | 292.668
38 | KWPER-LTASG |  |  | 2038.8 | 1925.41
39 | GGSGA-LRVQL | 231.616 | 0 |  | 
40 | GSGHR-LMMGT |  |  | 0 | 0
41 | SGPLG-IFYTA | 12792.1 | 12792.1 |  | 
42 | NTFLH-LTASG |  |  | 0 | 0

Results, then the substance that gave them:

Row | Kobs (MMP-2; [1]) [M⁻¹ s⁻¹] | Kobs (MMP-9; [2]) [M⁻¹ s⁻¹] | Kobs (MMP-2; [3]) [M⁻¹ s⁻¹] | Kobs (MMP-9; [4]) [M⁻¹ s⁻¹] | Substance
43 |  |  | 1327.88 | 0 | GGSGF-LVAKA
44 | 0 | 0 |  |  | GSGMR-LVLRT
45 | 7386.83 | 12792.1 |  |  | SGPMS-LRMTA
46 | 0 | 0 |  |  | SGIES-MYVTA
47 |  |  | 619.843 | 0 | GGSGQ-LLATK
48 | 10866.7 | 0 |  |  | GTIAH-LHTAS
49 | 0 | 0 |  |  | GTLLD-LITAS
50 |  |  | 551.253 | 690.17 | GGSGR-LKWNL
51 | 12792.1 | 10866.7 |  |  | GRPLQ-YRTAS
52 | 12792.1 | 12792.1 |  |  | SGPLS-LRSTA
53 | 5269.78 | 3741.87 |  |  | YAPGS-MTASG
54 | 2409.72 | 12792.1 |  |  | SGPWG-LLETA
55 | 9740.44 | 7815.03 |  |  | SAVRA-LTASG
56 |  |  | 10866.7 | 1239.69 | SPAHG-LTASG
57 | 12792.1 | 4205.91 |  |  | QSPVQ-LTASG
58 | 10866.7 | 12792.1 |  |  | GRPMN-LRTAS
59 | 0 | 0 |  |  | SGSWS-LILTA
60 | 231.616 | 0 |  |  | SGYAG-LRQTA
61 | 5090.5 | 201.585 |  |  | IGYAW-MTASG
62 | 0 | 0 |  |  | GPVMR-MSTAS
63 | 0 | 0 |  |  | GGSGS-LRLFE

Row | Kobs (MMP-2; [1]) [M⁻¹ s⁻¹] | Kobs (MMP-9; [2]) [M⁻¹ s⁻¹] | Kobs (MMP-2; [3]) [M⁻¹ s⁻¹] | Kobs (MMP-9; [4]) [M⁻¹ s⁻¹] | Substance
64 |  |  | 2996.69 | 8941.32 | SGPMS-LLDTA
65 |  |  | 8941.32 | 142.481 | VYSAY-LTASG
66 |  |  | 8941.32 | 8321.48 | SGPMA-LKSTA
67 | 201.585 | 201.585 |  |  | SGALH-LRETA
68 | 12792.1 | 84.609 |  |  | FMMGN-MTASG
69 |  |  | 8321.48 | 6688.74 | SGPAA-LQSTA
70 |  |  | 1327.88 | 0 | MDLLS-LTASG
71 | 12792.1 | 12792.1 |  |  | GAPSS-LRTAS
72 | 7815.03 | 6396.07 |  |  | GSPLS-WRTAS
73 | 1711.63 | 951.362 |  |  | VTVIA-LTASG
74 | 0 | 0 |  |  | SGLAK-LTVTA
75 |  |  | 56.119 | 0 | GKFAT-LVTAS
76 | 0 | 3741.87 |  |  | SGPLA-STVTA
77 |  |  | 0 | 323.705 | GSGFA-LVAKT
78 | 201.585 | 231.616 |  |  | GSGQG-LKVRT
79 | 4335.13 | 5889.62 |  |  | GVPQW-IHTAS
80 | 2476.66 | 10866.7 |  |  | SGPLT-LNSTA
81 |  |  | 0 | 231.616 | SPALD-MTASG
82 |  |  | 12792.1 | 12792.1 | RRVLA-LTASG
83 | 12792.1 | 12792.1 |  |  | YLPRA-ITASG
84 | 0 | 0 |  |  | SGYAH-MRVTA

From paper PMC7932537, “Quantitative profiling of protease specificity” (PLoS Computational Biology, 2021)
